Entries after “also recorded” stand apart in the source; their conditions may differ.

The conditions of data set [1]: cited from earlier work; for taste properties in words: background statements, literature sensory evaluation.
Data set [2] can be described thus: Sensory testing of steviol glycoside samples dissolved in water. Type of data set: in vivo. The conditions noted are these: for Sensory Comments: about 300 ppm sample in reverse osmosis water, 2-3 mL tasted by two to three experienced tasters; for sweetness in water compared with Reb M in water: in reverse osmosis water, experienced tasters. The protocol: Steviol glycoside samples (SG201, SG203, and SG204) were isolated and purified from fermentation broth, purified Reb A and B are of leaf origin, and Reb M is chemically synthesized. All samples were dissolved in reverse osmosis water at the concentrations indicated. Approximately 2-3 milliliters of each solution was tasted and sensory evaluations conducted by two to three experienced tasters.

For data set [3] the following is noted: water at room temperature / beverage formulations; cited from earlier work.

Turning to `C=C1C[C@@]23CC[C@H]4[C@@](C)(CCC[C@@]4(C)C(=O)O[C@@H]4O[C@H](CO)[C@@H](O)[C@H](O)[C@H]4O)[C@@H]2CC[C@]1(O[C@@H]1O[C@H](CO)[C@@H](O)[C@H](O[C@@H]2O[C@H](CO)[C@@H](O)[C@H](O)[C@H]2O)[C@H]1O[C@@H]1O[C@H](CO)[C@@H](O)[C@H](O)[C@H]1O)C3` [Reb A, rebaudioside A], the “taste properties in words” value in data set [1] was “off-taste issues”. In data set [2], the “Sensory Comments” value is given as “some sweet, bitter”.

As to `C=C1C[C@@]23CC[C@H]4[C@@](C)(CCC[C@@]4(C)C(=O)O[C@@H]4O[C@H](CO)[C@@H](O)[C@H](O)[C@H]4O[C@@H]4O[C@H](CO)[C@@H](O)[C@H](O)[C@H]4O)[C@@H]2CC[C@]1(O[C@@H]1O[C@H](CO)[C@@H](O)[C@H](O[C@@H]2O[C@H](CO)[C@@H](O)[C@H](O)[C@H]2O)[C@H]1O[C@@H]1O[C@H](CO)[C@@H](O)[C@H](O)[C@H]1O)C3` [Reb D, rebaudioside D], the “taste properties in words” value in data set [1] is “slow onset of sweetness and was very clean”. In addition, in data set [1] (relative to sucrose (sugar)), the “times sweeter than sucrose” value is on record as 200-220 times. The “Sensory Comments” value in data set [2] is reported as “less bitter; also recorded: better sweetness,”. The “aqueous solubility in words” value in data set [3] is on record as “low solubility in water at room temperature”.

In the case of `C=C1C[C@@]23CC[C@H]4[C@@](C)(CCC[C@@]4(C)C(=O)O[C@@H]4O[C@H](CO)[C@@H](O)[C@H](O[C@@H]5O[C@H](CO)[C@@H](O)[C@H](O)[C@H]5O)[C@H]4O[C@@H]4O[C@H](CO)[C@@H](O)[C@H](O)[C@H]4O)[C@@H]2CC[C@]1(O[C@@H]1O[C@H](CO)[C@@H](O)[C@H](O[C@@H]2O[C@H](CO)[C@@H](O)[C@H](O)[C@H]2O)[C@H]1O[C@@H]1O[C@H](CO)[C@@H](O)[C@H](O)[C@H]1O)C3` [Reb M, rebaudioside M], in data set [1], the “taste properties in words” value is “higher sweetness intensity and is more potent than other steviol glycosides”. Also, the “Sensory Comments” value in data set [2] is “good sweetness, almost; also recorded: sucrose-like sensation; also recorded: in mouth”. The “aqueous solubility in words” value in data set [3] is “poor aqueous solubility and dissolution qualities”.

Take `C=C1C[C@@]23CCC4[C@](C)(C(=O)OC5OC(CO)C(O)C(OC6OC(CO)C(O)C(O)C6O)C5OC5OC(CO)C(O)C(O)C5O)CCC[C@@]4(C)[C@@H]2CCC1(OC1OC(CO)C(O)C(O)C1O)C3` (stereo partly drawn) [SG201]: in data set [2], the “Sensory Comments” value was “not sweet, meaty, brothy,; also recorded: strecker, methional” and the “sweetness in water compared with Reb M in water” value is “do not exhibit sweetness similar to Reb M”.

For `C=C1C[C@@]23CCC4[C@](C)(C(=O)OC5OC(CO)C(O)C(O)C5OC5OC(CO)C(O)C(O)C5O)CCC[C@@]4(C)[C@@H]2CCC1(OC1OC(COC2OC(CO)C(O)C(O)C2O)C(O)C(O)C1OC1OC(CO)C(O)C(O)C1O)C3` (stereo partly drawn) [SG203], in data set [2], the “Sensory Comments” value is “not sweet, meaty, brothy,; also recorded: strecker, methional” and the “sweetness in water compared with Reb M in water” value is “do not exhibit sweetness similar to Reb M”.

With `C=C1C[C@@]23CCC4[C@](C)(C(=O)OC5OC(CO)C(O)C(O)C5OC5OC(CO)C(O)C(O)C5NC(C)=O)CCC[C@@]4(C)[C@@H]2CCC1(OC1OC(CO)C(O)C(OC2OC(CO)C(O)C(O)C2O)C1OC1OC(CO)C(O)C(O)C1O)C3` (stereo partly drawn) [SG204], in data set [2], the “Sensory Comments” value is listed as “bitter, not very sweet” and the “sweetness in water compared with Reb M in water” value was “do not exhibit sweetness similar to Reb M”.

These data come from patent US20200305481A1, “STEVIOL GLYCOSIDE COMPOSITIONS FOR ORAL INGESTION OR USE” (CARGILL, INCORPORATED, priority 2015, published 2020).
